In brackets after ≈: the same amount, converted by molar mass. Several values for one entry are separate records, joined by “and”; a condition that tells them apart may be missing. Equal values may be shown once. Entries after “also recorded” stand apart in the source; their conditions may differ. Read-outs that look alike come from different tables or passages of the source.
Experiments:
[1] = tested on: clinical isolates of P. aeruginosa
Method: (§1) Broad-spectrum antimicrobial activity was evaluated using the broth microdilution assays against two different pathogens from four different species of bacteria (P. aeruginosa, S. aureus, K. pneumoniae, and E. coli) to determine if the cyclotides retained its potent activity. Broth microdilution assays were utilized to determine the minimum inhibitory concentrations (MICs) of our cyclotides according to the CLSI (formerly NCCLS) guidelines modifications as described below (40). The assay utilized cation-adjusted Mueller-Hinton broth (CAMHB) (Becton, Dickinson and Company, Franklin Lakes, NJ) which was prepared according to the manufacturer's instructions. Cyclotide solutions were prepared as 10× solutions in 0.01% acetic acid. Cyclotide were serially diluted two-fold at concentrations ranging from 25-0.05 μM that contained CAMHB and 0.04% bovine serum albumin (BSA) in polypropylene microtiter plates (Corning, Corning, NY). All bacteria were incubated overnight at 37° C. at 200 rpm in CAMHB and bacterial inoculum was adjusted with additional CAMHB to 0.5 McFarland standard through spectrophotometry at 600 nm. […] Study strains included a total of 20 P. aeruginosa and 20 methicillin resistant S. aureus strains from patients with cystic fibrosis at the Keck Medical Center of the University of Southern California. […] Colistin sulphate (Sigma-Aldrich, St Louis, MO) was used as a reference antibiotic for P. aeruginosa and E. coli, while vancomycin hydrochloride and meropenem trihydrate were used as reference antibiotics for S. aureus and K. pneumoniae.

[2] = tested on: P. aeruginosa (Schroeter) Migula (ATCC 27853); test: P. aeruginosa-induced peritonitis murine model; type: in vivo, Balb/c mice; design: reference not given here; conditions: single i.p. dose 15 mg/kg, 7 days
Description: (§2) Colistin was used as a control antibiotic.[28] […] For this purpose, Applicant employed a P. aeruginosa bacterial peritonitis model.[29] This animal model is a well-established acute infection model and is commonly utilized as a common preclinical screening method for new antibiotics.[30] Peritonitis in Balb/c mice (n=10) was established by intraperitoneal injection of 1.5×10^7 colony forming units (CFU) per mouse of P. aeruginosa (Schroeter) Migula (ATCC 27853).
P. aeruginosa-induced peritonitis murine model. Eight to 10-week-old Balb/c mice (Jackson Laboratory, Bar Harbor, ME) were housed five in a cage with standard chow and water ad libitum. To establish the model, 1.5×10^7 CFU of log-phase P. aeruginosa ATCC 27853 was injected intraperitoneally. […] Mice were monitored for 7 days and/or euthanized if any mice presented signs of moribundity.

[3] = Maximum tolerated dose (MTD) toxicology study; conditions: for MTD at 3 days: Balb/c, mouse, in vivo, ip
Description: as §2
Maximum tolerated dose (MTD) toxicology Studies. The MTD was determined using two different endpoints: weight loss and clinical scoring. Clinical scores were evaluated through activity, appearance and body condition, similar to previously published literature (42). […] Any dose escalation that leads to moderate toxicity (clinical score of >2) was ceased and the dose prior served as the MTD. Mice were monitored every hour for 4 h after injection on the first day. After 24 h, mice were monitored twice daily for another two days until weight and clinical scores were returned to normal. Mice that met the criteria for moribund included a >20% weight loss and clinical score of >3 and were euthanized.

[4] = in vitro
Method: This was accomplished by incubating the corresponding peptides in human serum at 37° C. The quantitative analysis of undigested polypeptides was performed using liquid chromatography coupled with tandem mass spectrometry (LC-MS/MS). MCoTI-cyclotides present a very rigid structure,[24] which makes them extremely stable to proteolytic degradation.
Human serum stability. […]. Peptides were dissolved in water at 10 mg/mL concentration. 150 μg of peptides (15 μL) were mixed with 500 μL of human serum and incubated at 37° C. Samples (30 μL) were taken at various time intervals (0-120 h) and serum proteins were precipitated using 180 μL of acetonitrile containing 0.1% TFA. After centrifugation the pellet was dissolved in 8 M GdmCl and the supernatant was lyophilized and re-dissolved in 5% acetonitrile in water containing 0.1% formic acid. Both the supernatant and solubilized pellet fractions were analyzed by HPLC and LC-MS/MS. Each experiment was done in triplicate.

[5] = tested on: human HEK293T and A549 epithelial cells
Method: Cytotoxicity Assay. Cellular toxicities against human HEK293T and A549 epithelial cells were evaluated using Resazurin (Alamarblue™, Thermo Fisher Scientific, Waltham, MA). HEK293T cells were grown in minimum essential media (MEM), while A549 cells were grown in Dulbecco's […] (DMEM) supplemented with 10% fetal bovine serum (FBS) and maintained at 37° C. with 5% CO2. For each cell line, 10^4 cells were added to each well in a 96-well polystyrene plate and incubated for 16 h. Peptides were serially diluted two-fold at concentrations ranging from 100-0.2 μM in medium containing 10% FBS in polystyrene 96 well microtiter plates (Corning) for 16 h. After the incubation period, the cells were washed with PBS and treated with 200 μL/well DMEM media supplemented with 10% FBS containing the peptides at the indicated concentration for 22 h at 37° C. in 5% CO2 and then the medium was replaced with fresh growth medium containing resazurin and incubated for another 2 hours. Cell viability was quantified spectrophotometrically and cells incubated in the absence of peptides and containing 2% Triton X-100 (Sigma) served as controls.

[6] = tested on: E. coli; conditions: CAMHB
Method: as §1

[7] = tested on: clinical isolates of methicillin-resistant S. aureus (MRSA)
Method: as §1

[8] = human, human serum, t1/2 in human serum, 37° C., LC-MS/MS

## Colistin
[1]; clinical isolates, n=20
  P. aeruginosa MIC50: ≤0.2 µM
  P. aeruginosa MIC90: 0.4 µM
  P. aeruginosa MICrange: ≤0.2 to 0.4 µM
[2]; 12.3 μmol/kg, as printed in legend of FIG. 4
  hazard ratio [HR] (survival): 24.8
[2]
  hazard ratio [HR] (survival): 0.040
[3]; Balb/c mice, single i.p. dose, endpoints weight loss and clinical score
  maximum tolerated dose (well tolerated intraperitoneal dose): 15 mg/kg

## CC[C@H](C)[C@@H]1NC(=O)[C@@H]2CSSC[C@@H]3NC(=O)[C@H](C(C)C)NC(=O)CNC(=O)CNC(=O)[C@H](CCCNC(=N)N)NC(=O)[C@H](CCCNC(=N)N)NC(=O)CNC(=O)[C@H](C(C)C)NC(=O)[C@@H]4CSSC[C@H](NC(=O)[C@H](CC(C)C)NC(=O)[C@H](CCCNC(=N)N)NC(=O)CNC(=O)CNC(=O)[C@H](CO)NC(=O)CNC(=O)[C@H](CO)NC(=O)CNC(=O)[C@@H]5CSSC[C@H](NC(=O)[C@H](CC(=O)O)NC(=O)[C@H](CO)NC(=O)[C@H](CC(=O)O)NC(=O)[C@H](CCCNC(=N)N)NC(=O)[C@H](CCCNC(=N)N)NC(=O)[C@H](CSSC[C@H](NC1=O)C(=O)N[C@@H](CCCNC(=N)N)C(=O)NCC(=O)N[C@@H](CC(N)=O)C(=O)NCC(=O)N[C@@H](Cc1ccc(O)cc1)C(=O)N5)NC(=O)[C@H](CCCNC(=N)N)NC(=O)[C@H](CCC(N)=O)NC(=O)[C@H](CC(C)C)NC(=O)[C@H]([C@@H](C)CC)NC(=O)[C@H](CCCCN)NC(=O)[C@@H]1CCCN1C3=O)C(=O)N1CCC[C@H]1C(=O)NCC(=O)N[C@@H](C)C(=O)N2)C(=O)N[C@@H](Cc1ccc(O)cc1)C(=O)N[C@H]1CSSC[C@H](NC(=O)[C@H](Cc2ccccc2)NC(=O)[C@H](CCCNC(=N)N)NC(=O)[C@H](CCCNC(=N)N)NC(=O)[C@H](CCCNC(=N)N)NC1=O)C(=O)N[C@@H](C(C)C)C(=O)N4 [MCo-PG2]
[4]; 37° C., LC-MS/MS
  t1/2 in human serum: ~60 h
[4]; [8]
  half-life at 0.291 mg/mL: 60 ± 6 h
[5]
  cytotoxicity relative to PG-1: about three times less toxic than PG-1; also recorded: about three times less cytotoxic than PG-1
[6]; E. coli DS377
  MIC: 0.8 µM (≈ 4.4 µg/mL)
[6]; E. coli K12
  MIC: 0.8 µM (≈ 4.4 µg/mL)
[1]; PA strain 95302
  P. aeruginosa (PA) MIC: 1.57 µM
[1]; PA strain 119133
  P. aeruginosa (PA) MIC: 3.125 µM
[1]; PA strain 167482
  P. aeruginosa (PA) MIC: 0.4 µM
[1]; PA strain 200174
  P. aeruginosa (PA) MIC: 0.4 µM
[1]; PA strain 219686
  P. aeruginosa (PA) MIC: 3.125 µM
[1]; PA strain 254831
  P. aeruginosa (PA) MIC: 1.5 µM
[1]; PA strain 262309
  P. aeruginosa (PA) MIC: 1.5 µM
[1]; PA strain 298473
  P. aeruginosa (PA) MIC: 0.78 µM
[1]; PA strain 466035
  P. aeruginosa (PA) MIC: 0.4 µM
[1]; PA strain 486442
  P. aeruginosa (PA) MIC: 0.78 µM
[1]; PA strain 618154
  P. aeruginosa (PA) MIC: 0.78 µM
[1]; PA strain 678449
  P. aeruginosa (PA) MIC: 3.125 µM
[1]; PA strain 774248
  P. aeruginosa (PA) MIC: 12.5 µM
[1]; PA strain 815159
  P. aeruginosa (PA) MIC: 0.78 µM
[1]; PA strain 844265
  P. aeruginosa (PA) MIC: 0.78 µM
[1]; PA strain 857950
  P. aeruginosa (PA) MIC: 6.25 µM
[1]; PA strain 864684
  P. aeruginosa (PA) MIC: 3.125 µM
[1]; PA strain 894496
  P. aeruginosa (PA) MIC: 0.78 µM
[1]; PA strain 894925
  P. aeruginosa (PA) MIC: 3.125 µM
[1]; PA strain 900719
  P. aeruginosa (PA) MIC: 3.125 µM
[7]; MRSA clinical isolates, n=20
  S. aureus MIC50: 6.25 µM and 6.3 µM
  S. aureus MIC90: 12.5 µM
[7]; SA strain 766
  S. aureus (SA) MIC: 6.25 µM
[7]; SA strain 4084-1
  S. aureus (SA) MIC: 12.5 µM
[7]; SA strain 4094
  S. aureus (SA) MIC: 12.5 µM
[7]; SA strain 6151-1
  S. aureus (SA) MIC: 12.5 µM
[7]; SA strain 10337-1
  S. aureus (SA) MIC: 6.25 µM
[7]; SA strain 10630-1
  S. aureus (SA) MIC: 6.25 µM
[7]; SA strain 20021-1
  S. aureus (SA) MIC: 6.25 µM
[7]; SA strain 20457-1
  S. aureus (SA) MIC: 12.5 µM
[7]; SA strain 28283
  S. aureus (SA) MIC: 6.25 µM
[7]; SA strain 28310
  S. aureus (SA) MIC: 6.25 µM
[7]; SA strain 28355
  S. aureus (SA) MIC: 6.25 µM
[7]; SA strain 30138-2
  S. aureus (SA) MIC: 3.125 µM
[7]; SA strain 30493-1
  S. aureus (SA) MIC: 6.25 µM
[7]; SA strain 32120-1
  S. aureus (SA) MIC: 6.25 µM
[7]; SA strain 38878-2
  S. aureus (SA) MIC: 3.125 µM
[7]; SA strain 87066
  S. aureus (SA) MIC: 12.5 µM
[7]; SA strain 87112
  S. aureus (SA) MIC: 12.5 µM
[7]; SA strain 87180
  S. aureus (SA) MIC: 6.25 µM
[7]; SA strain 88,531
  S. aureus (SA) MIC: 12.5 µM
[7]; SA strain 902674
  S. aureus (SA) MIC: 12.5 µM
[3]
  MTD at 3 days: 25 mg/kg
[3]; in vivo toxicity studies
  times less toxic than PG-1 in mice: approximately 4

## CC(C)C[C@H](NC(=O)[C@H](CCCNC(=N)N)NC(=O)CNC(=O)CNC(=O)[C@@H](N)CCCNC(=N)N)C(=O)N[C@H]1CSSC[C@@H](C(=O)N[C@H](C(=O)NCC(=O)N[C@@H](CCCNC(=N)N)C(N)=O)C(C)C)NC(=O)[C@H](C(C)C)NC(=O)[C@@H]2CSSC[C@H](NC(=O)[C@H](Cc3ccc(O)cc3)NC1=O)C(=O)N[C@@H](CCCNC(=N)N)C(=O)N[C@@H](CCCNC(=N)N)C(=O)N[C@@H](CCCNC(=N)N)C(=O)N[C@@H](Cc1ccccc1)C(=O)N2 [PG-1, reference compound]
[4]; 37° C.
  degradation in human serum within the first 24 h (in words): significant degradation
[4]; human, human serum
  metabolised at 24 h, 0.29 mg/mL: ~55%
[4]; [8]
  half-life at 0.29 mg/mL: 30 ± 3 h
[3]
  MTD at 3 days: 5 mg/kg

Source: patent publication US20240092846A1, “ENGINEERED CYCLOTIDES WITH POTENT BROAD ANTIMICROBIAL ACTIVITY” (priority 2022, published 2024)
